Measurements taken from the NIST ThermoML archive (doi:10.1016/j.jct.2011.06.007).
Numbers after ± are expanded uncertainties.

What was measured:
[1] = Molar enthalpy of transition or fusion; settings: Crystal; DSC
[2] = for mass density: 101.33 kPa, Liquid, Vibrating tube method
[3] = activity coefficient (dimensionless); of the first substance listed, at infinite dilution; xn = mol fraction of the nth substance listed; settings: 101 kPa, Liquid, Chromatography, x1 = 0

SMILES | Molar enthalpy of transition or fusion [1] [kcal/mol] | mass density ([2]; 318.15 K) [kg/m3] | mass density ([2]; 328.15 K) [kg/m3] | mass density ([2]; 338.15 K) [kg/m3] | mass density ([2]; 348.15 K) [kg/m3] | mass density ([2]; 358.15 K) [kg/m3] | mass density ([2]; 368.15 K) [kg/m3] | Normal melting temperature ([2]; Crystal, DTA) [°C] | activity coefficient ([3]; 318.15 K) | activity coefficient ([3]; 328.15 K) | activity coefficient ([3]; 338.15 K) | activity coefficient ([3]; 348.15 K) | activity coefficient ([3]; 358.15 K) | activity coefficient ([3]; 368.15 K)
CCCC[N+]1(C)CCCC1.N#C[B-](C#N)(C#N)C#N [1-butyl-1-methylpyrrolidinium tetracyanoborate] | 8.51 ± 0.184 | 962.29 ± 1 | 955.61 ± 1 | 949 ± 1 | 942.32 ± 1 | 935.59 ± 1 | 928.86 ± 1 | 17.30 ± 0.39 | – | – | – | – | – | –
COC(C)(C)C [2-methoxy-2-methylpropane] + CCCC[N+]1(C)CCCC1.N#C[B-](C#N)(C#N)C#N | – | – | – | – | – | – | – | – | 2.37 ± 0.16 | 2.39 ± 0.16 | 2.46 ± 0.17 | 2.48 ± 0.17 | 2.52 ± 0.17 | 2.55 ± 0.17
Cc1ccccc1 [toluene] + CCCC[N+]1(C)CCCC1.N#C[B-](C#N)(C#N)C#N | – | – | – | – | – | – | – | – | 1.09 ± 0.07 | 1.11 ± 0.07 | 1.14 ± 0.07 | 1.16 ± 0.07 | 1.18 ± 0.08 | 1.2 ± 0.08
CCC(C)(C)OC [2-methoxy-2-methylbutane] + CCCC[N+]1(C)CCCC1.N#C[B-](C#N)(C#N)C#N | – | – | – | – | – | – | – | – | 3.32 ± 0.23 | 3.34 ± 0.23 | 3.35 ± 0.23 | 3.36 ± 0.23 | 3.37 ± 0.23 | 3.39 ± 0.23

The next lines start with the values.

Molar enthalpy of transition or fusion [1] [kcal/mol] | mass density ([2]; 318.15 K) [kg/m3] | mass density ([2]; 328.15 K) [kg/m3] | mass density ([2]; 338.15 K) [kg/m3] | mass density ([2]; 348.15 K) [kg/m3] | mass density ([2]; 358.15 K) [kg/m3] | mass density ([2]; 368.15 K) [kg/m3] | Normal melting temperature ([2]; Crystal, DTA) [°C] | activity coefficient ([3]; 318.15 K) | activity coefficient ([3]; 328.15 K) | activity coefficient ([3]; 338.15 K) | activity coefficient ([3]; 348.15 K) | activity coefficient ([3]; 358.15 K) | activity coefficient ([3]; 368.15 K) | SMILES
– | – | – | – | – | – | – | – | 0.61 ± 0.043 | 0.611 ± 0.043 | 0.639 ± 0.044 | 0.652 ± 0.045 | 0.661 ± 0.045 | 0.679 ± 0.046 | C1CCOC1 [tetrahydrofuran] + CCCC[N+]1(C)CCCC1.N#C[B-](C#N)(C#N)C#N
– | – | – | – | – | – | – | – | 4.09 ± 0.28 | 3.97 ± 0.27 | 3.93 ± 0.27 | 3.88 ± 0.26 | 3.73 ± 0.25 | 3.71 ± 0.25 | C1=CCCCC1 [cyclohexene] + CCCC[N+]1(C)CCCC1.N#C[B-](C#N)(C#N)C#N
– | – | – | – | – | – | – | – | 16.4 ± 1.1 | 15.3 ± 1 | 14.3 ± 1 | 13.8 ± 0.9 | 12.9 ± 0.9 | 12.3 ± 0.8 | CCCCCC [hexane] + CCCC[N+]1(C)CCCC1.N#C[B-](C#N)(C#N)C#N
– | – | – | – | – | – | – | – | 0.991 ± 0.062 | 0.912 ± 0.058 | 0.861 ± 0.055 | 0.812 ± 0.053 | 0.753 ± 0.05 | 0.723 ± 0.048 | CO [methanol] + CCCC[N+]1(C)CCCC1.N#C[B-](C#N)(C#N)C#N
– | – | – | – | – | – | – | – | 46.2 ± 3.2 | 42.5 ± 2.9 | 38.2 ± 2.6 | 36.3 ± 2.5 | 32.6 ± 2.2 | 30.3 ± 2.1 | CCCCCCCCC [nonane] + CCCC[N+]1(C)CCCC1.N#C[B-](C#N)(C#N)C#N
– | – | – | – | – | – | – | – | 1.88 ± 0.13 | 1.67 ± 0.11 | 1.55 ± 0.1 | 1.44 ± 0.09 | 1.33 ± 0.09 | 1.23 ± 0.08 | CCCCO [butan-1-ol] + CCCC[N+]1(C)CCCC1.N#C[B-](C#N)(C#N)C#N
